Laboratory results taken from US4092315A, “Novel crystalline forms of prazosin hydrochloride” (Pfizer Inc., priority 1976, dated 1978).
“Also recorded” adds a separate entry of the source.

Key:
Type in all cases: physicochemical
[1] = Moisture uptake of anhydrate, monohydrate and dihydrate at room temperature, 75% relative humidity
Procedure: When samples of the anhydrate and monohydrate are stored at room temperature and 75% relative humidity they absorb moisture rapidly to form the dihydrate (8% water) in about 24 hours.

[2] = Compressed disc (intrinsic) dissolution in water at 37° C.; conditions: slope between 4 and 10 minutes, 150 rpm, hydrochloride
Procedure: Compressed disc dissolution studies were carried out by means of the procedure developed by Hamlin et al., J. Pharm, Sci., 51, 432(1962). A 300 mg. sample of powder was compressed against a flat surface at 3000 psi. for 2 minutes into a flat round disc using a tablet die of 7/16 inch diameter. The die holding the compressed disc was stoppered at the open end and placed into a plastic holder. This assembly was then placed into a jar containing 1000 ml. of water equilibrated at 37° C. The stirring rate of a teflon paddle centered in the jar was maintained at 150 revolutions per minute. The solution was pumped continuously through a Millipore filter ([…] pore size) into a flow cell of a Beckman Acta II spectrophotometer which automatically recorded any absorbance changes at 246 nm.
Table VI compares the intrinsic dissolution rates of various forms of prazosin hydrochloride. The rates were determined from the slopes of the compressed disc dissolution profiles between 4 and 10 minutes.

[3] = Hygroscopicity: water content (Karl Fischer) of samples on exposure to humidity; conditions: room temperature, 20% relative humidity, initially 13.5% water
[4] = as above; conditions: for Water Content: 37° C.; for hygroscopicity (in words): compared with the other forms
Procedure: Since moisture uptake affects integrity of a drug form, the α-, β- and γ- crystalline polymorphs of prazosin hydrochloride were compared for their relative hygroscopicity. Samples of each polymorph were placed in an open beaker and stored in a chamber maintained at 37° C. and 75% relative humidity. Portions were withdrawn periodically and their water content determined by the Karl Fischer method.

[5] = Conversion to hydrate on contact with water (microscopy, trituration); conditions: drop of water on microscope slide or excess of water, hydrochloride
From the text: When samples of the α-, β- and γ- polymorphs are triturated with water the resulting product in each case is found to give an infrared spectrum identical to that of the prazosin hydrochloride hydrates.
The β-form consisted of dark, monoclinic crystals, while the γ-form and polyhydrate are both needle-like crystals.
This is in agreement with the above mentioned change in the infrared spectra of the α-, β-, γ- polymorphs to that of the hydrates of prazosin hydrochloride upon trituration of each of the crystalline polymorphs with water. Stability Studies

[6] = 5 days, 75% R.H., hydrochloride
[7] = 12 days, 75% R.H., hydrochloride
[8] = 25 days, 75% R.H., hydrochloride
[9] = 34 days, 75% R.H., hydrochloride

COc1cc2nc(N3CCN(C(=O)c4ccco4)CC3)nc(N)c2cc1OC.Cl [dihydrate, 2-[4-(2-furoyl)piperazin-1-yl]-4-amino-6,7-dimethoxyquinazoline hydrochloride]
equilibrium water content ([1]; after 4 days, room temperature, 75% relative humidity): 13.5%

COc1cc2nc(N3CCN(C(=O)c4ccco4)CC3)nc(N)c2cc1OC.Cl [methanolate, 2-[4-(2-furoyl)piperazin-1-yl]-4-amino-6,7-dimethoxyquinazoline hydrochloride]
Intrinsic Dissolution Rate ([2]; listed as Methanolate): 2.68 μg/liter sec.

COc1cc2nc(N3CCN(C(=O)c4ccco4)CC3)nc(N)c2cc1OC.Cl [polyhydrate, 2-[4-(2-furoyl)piperazin-1-yl]-4-amino-6,7-dimethoxyquinazoline hydrochloride]
Water Content ([3]; 18 days): 13.0% | Water Content ([3]; 35 days): 13.1% | Intrinsic Dissolution Rate ([2]; listed as Polyhydrate): 2.57 μg/liter sec. | Water Content ([4]; 10 days, 75% relative humidity, initially 13.7% water): 13.2% | Water Content ([4]; 23 days, 75% relative humidity, initially 13.7% water): 13.4% | moisture ([4]; other samples exposed to high humidity): up to 15%

COc1cc2nc(N3CCN(C(=O)c4ccco4)CC3)nc(N)c2cc1OC.Cl [β-form, 2-[4-(2-furoyl)piperazin-1-yl]-4-amino-6,7-dimethoxyquinazoline hydrochloride]
Intrinsic Dissolution Rate ([2]; listed as β-): 3.36 μg/liter sec. | conversion to hydrate on contact with water (in words) ([5]; listed as β-): sharp needle-like crystals of hydrate grew | Water Content [4, 6]: 0.59 % by Weight | Water Content [4, 7]: 1.18 % by Weight | Water Content [4, 8]: 4.66 % by Weight | Water Content [4, 9]: 6.06 % by Weight | hygroscopicity (in words) ([4]; hydrochloride): hygroscopic

COc1cc2nc(N3CCN(C(=O)c4ccco4)CC3)nc(N)c2cc1OC.Cl [anhydrate, 2-[4-(2-furoyl)piperazin-1-yl]-4-amino-6,7-dimethoxyquinazoline hydrochloride]
Intrinsic Dissolution Rate ([2]; listed as Anhydrate): 2.35 μg/liter sec. | water content on storage (dihydrate formed) ([1]; about 24 hours, room temperature, 75% relative humidity): 8% | time to form the dihydrate ([1]; room temperature, 75% relative humidity): about 24 hours

COc1cc2nc(N3CCN(C(=O)c4ccco4)CC3)nc(N)c2cc1OC.Cl [γ-form, 2-[4-(2-furoyl)piperazin-1-yl]-4-amino-6,7-dimethoxyquinazoline hydrochloride]
Intrinsic Dissolution Rate ([2]; listed as γ-): 2.35 μg/liter sec. | conversion to hydrate on contact with water (in words) ([5]; listed as γ-forms): sharp needle-like crystals of hydrate grew | Water Content [4, 6]: 0.16 % by Weight | Water Content [4, 7]: 4.61 % by Weight | Water Content [4, 8]: 9.47 % by Weight | Water Content [4, 9]: 9.05 % by Weight | hygroscopicity (in words) ([4]; hydrochloride): more hygroscopic then the β-form | change of form on exposure to moisture (in words) ([4]; infrared spectrum (KBr) after exposure to moisture): formation of a hydrate

COc1cc2nc(N3CCN(C(=O)c4ccco4)CC3)nc(N)c2cc1OC.Cl [α-form, 2-[4-(2-furoyl)piperazin-1-yl]-4-amino-6,7-dimethoxyquinazoline hydrochloride]
Intrinsic Dissolution Rate ([2]; listed as α-): 3.25 μg/liter sec. | conversion to hydrate on contact with water (in words) [5]: converted to the polyhydrate | conversion to hydrate on contact with water (in words) ([5]; listed as α-): sharp needle-like crystals of hydrate grew | Water Content [4, 6]: 0.32 % by Weight | Water Content [4, 7]: 0.85 % by Weight | Water Content [4, 8]: 1.18 % by Weight | Water Content [4, 9]: 1.54 % by Weight | hygroscopicity (in words) ([4]; hydrochloride): relatively non-hydroscopic when compared with the β- and γ-forms; also recorded: non-hygroscopic

COc1cc2nc(N3CCN(C(=O)c4ccco4)CC3)nc(N)c2cc1OC.Cl [monohydrate, 2-[4-(2-furoyl)piperazin-1-yl]-4-amino-6,7-dimethoxyquinazoline hydrochloride]
reversion upon exposure to moist air (in words) ([1]; exposure to moist air): revert to polyhydrate
